How the values were obtained:
Test in all cases: relative viability (nuclei count vs DMSO), 5 days (fraction); higher = more cells survive
Pazopanib + OSI-027 = compound: Cc1ccc(Nc2nccc(N(C)c3ccc4c(C)n(C)nc4c3)n2)cc1S(N)(=O)=O [Pazopanib] + COc1cccc2cc(-c3nc([C@H]4CC[C@H](C(=O)O)CC4)n4ncnc(N)c34)[nH]c12 [OSI-027] (partner 0.5 µM)
Outline: (§1)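 A single step with final 0.05% Triton X-100, 1% formaldehyde and 1 ug/ml Hoechst fixed the cells and stained nuclei 5 days after treatment. Lung cancer cell lines in 1536-well plates had been treated by pin tool the day after seeding with one drug alone or a fixed anchor-drug dose plus five library-drug doses (not always all listed) in √10 steps, and nuclei were counted on 4× images. Relative viability is the ratio of nuclei in treated wells to nuclei in vehicle wells, taken as the median of duplicate plates.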

Ponatinib + Pictilisib = compound: Cc1ccc(C(=O)Nc2ccc(CN3CCN(C)CC3)c(C(F)(F)F)c2)cc1C#Cc1cnc2cccnn12 [Ponatinib] + CS(=O)(=O)N1CCN(Cc2cc3nc(-c4cccc5[nH]ncc45)nc(N4CCOCC4)c3s2)CC1 [Pictilisib] (partner 1 µM)
Outline: as §1

Ponatinib + Luminespib = compound: Cc1ccc(C(=O)Nc2ccc(CN3CCN(C)CC3)c(C(F)(F)F)c2)cc1C#Cc1cnc2cccnn12 [Ponatinib] + CCNC(=O)c1noc(-c2cc(C(C)C)c(O)cc2O)c1-c1ccc(CN2CCOCC2)cc1 [Luminespib] (partner 0.01 µM)
Outline: as §1

Pazopanib + AZD7762 = compound: Cc1ccc(Nc2nccc(N(C)c3ccc4c(C)n(C)nc4c3)n2)cc1S(N)(=O)=O [Pazopanib] + NC(=O)Nc1cc(-c2cccc(F)c2)sc1C(=O)N[C@H]1CCCNC1 [AZD7762] (partner 0.2 µM)
Outline: as §1

Row | Cell Line | relative viability (Pazopanib + OSI-027; first compound 0.01 µM) | relative viability (Pazopanib + OSI-027; first compound 0.03162 µM) | relative viability (Pazopanib + OSI-027; first compound 0.1 µM) | relative viability (Pazopanib + OSI-027; first compound 1 µM) | relative viability (Ponatinib + Pictilisib; first compound 0.002 µM) | relative viability (Ponatinib + Pictilisib; first compound 0.006325 µM) | relative viability (Ponatinib + Pictilisib; first compound 0.06325 µM) | relative viability (Ponatinib + Pictilisib; first compound 0.2 µM) | relative viability (Ponatinib + Luminespib; first compound 0.002 µM) | relative viability (Ponatinib + Luminespib; first compound 0.006325 µM) | relative viability (Ponatinib + Luminespib; first compound 0.06325 µM) | relative viability (Ponatinib + Luminespib; first compound 0.2 µM) | relative viability (Pazopanib + AZD7762; first compound 0.01 µM) | relative viability (Pazopanib + AZD7762; first compound 0.03162 µM) | relative viability (Pazopanib + AZD7762; first compound 0.1 µM) | relative viability (Pazopanib + AZD7762; first compound 0.3162 µM) | relative viability (Pazopanib + AZD7762; first compound 1 µM) | relative viability (Pazopanib + OSI-027; first compound 0.3162 µM)
1 | NCI-H358 | 0.843 | 0.999 | 0.828 | 1.03 | 0.318 | 0.429 | 0.369 | 0.331 | 0.406 | 0.418 | 0.597 | 0.262 | 0.484 | 0.571 | 0.693 | 0.633 | 0.558 | –
2 | NCI-H441 | 0.6 | 0.597 | 0.649 | 0.454 | 0.608 | 0.48 | 0.49 | 0.313 | 0.359 | 0.354 | 0.305 | 0.315 | 1.31 | 1.14 | 1.08 | 1.09 | 1.12 | 0.619
3 | NCI-H460 | 0.601 | 0.912 | 0.645 | 0.725 | 0.383 | 0.441 | 0.469 | 0.452 | 0.0243 | 0.0378 | 0.0319 | 0.0324 | 0.766 | 0.619 | 0.551 | 0.637 | 0.597 | 0.665
4 | NCI-H596 | – | 0.74 | 0.568 | 0.632 | 0.354 | 0.401 | 0.36 | 0.374 | 1.06 | 1.07 | 1.01 | 0.686 | 0.925 | 1.1 | 1.03 | 1.16 | 1.03 | 0.879
5 | NCI-H647 | 0.594 | 0.688 | 0.723 | 0.739 | 0.381 | 0.449 | 0.434 | 0.376 | 0.136 | 0.225 | 0.158 | 0.234 | 0.373 | 0.635 | 0.469 | 0.428 | 0.546 | 0.902
6 | NCI-H650 | 0.464 | 0.523 | 0.517 | 0.482 | 0.843 | 0.739 | 0.758 | 0.88 | 0.807 | 0.783 | 0.958 | 0.775 | 0.948 | 1.07 | 1.09 | 0.942 | 0.904 | 0.544
7 | NCI-H727 | 0.462 | 0.561 | 0.545 | 0.574 | 0.367 | 0.514 | 0.356 | 0.333 | 0.321 | 0.444 | 0.516 | 0.261 | 0.618 | – | 0.609 | 0.663 | 0.562 | 0.505
